Inhibition data for seven molecules are collected here from PMC8717867, “The Oxidation Cascade of a Rare Multifunctional P450 Enzyme Involved in Asperterpenoid A Biosynthesis” (Frontiers in Chemistry, 2021).

The target in this assay is T1, mPTPB (Mycobacterium tuberculosis protein tyrosine phosphatase B) (Mycobacterium tuberculosis, UniProt I6WXK4).
T1 construct: gene ptpB
T1 sequence (I6WXK4 whole entry, looked up): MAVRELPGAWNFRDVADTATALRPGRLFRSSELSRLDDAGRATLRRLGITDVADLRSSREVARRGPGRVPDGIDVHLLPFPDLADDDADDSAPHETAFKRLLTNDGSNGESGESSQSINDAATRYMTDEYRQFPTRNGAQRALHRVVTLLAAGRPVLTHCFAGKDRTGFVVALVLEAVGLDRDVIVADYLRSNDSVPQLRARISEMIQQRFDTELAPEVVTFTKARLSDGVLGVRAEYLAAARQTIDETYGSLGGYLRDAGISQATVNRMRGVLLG
As to the kind of experiment: biochemical. The note with it: read-out: 50 uM inhibition rate (%). Also on record: mPTPB phosphatase inhibition, pNPP substrate, absorbance at 405 nm.
With `CC(C)[C@H]1CC[C@@]2(C)CC[C@]3(CO)CC4=C(C(=O)O)CC[C@H]4[C@]4(C)C[C@@H]4[C@H]3[C@H]12` [asperterpenoid A], the inhibition at 50 µM was 98.2%.
With `CC(C)[C@H]1CC[C@@]2(C)CC[C@]3(C(=O)O)CC4=C(C(=O)O)CC[C@H]4[C@]4(C)C[C@@H]4[C@H]3[C@H]12` [asperterpenoid B] the figure was 98.9%.
Regarding `CC(C)[C@H]1C[C@@H](O)[C@@]2(C)CC[C@]3(CO)CC4=C(C(=O)O)CC[C@H]4[C@]4(C)C[C@@H]4[C@H]3[C@H]12` [asperterpenoid C], the inhibition at 50 µM worked out at 45.1%.
With `CC(C)C1CCC2(C)CCC3(C)CC4=C(C(=O)O)CCC4C4(C)CC4C3C12` (stereo not shown) [compound 1, asperterpenoid D] the figure was 52.8%.
With `CC(C)C1CCC2(C)CCC3(C)CC4=C(CO)CCC4C4(C)CC4C3C12` (stereo not shown) [compound 2, asperterpenoid E] the figure was 46.8%; with `CC(C)C1CCC2(C)CCC3(CO)CC4=C(CO)CCC4C4(C)CC4C3C12` (stereo not shown) [compound 3, asperterpenoid F], 48%; with `CC1=C2C[C@@]3(C)CC[C@]4(C)CC[C@H](C(C)C)[C@H]4[C@@H]3[C@H]3C[C@@]3(C)[C@@H]2CC1` [preasperterpenoid A], 31.1%.

Usually inhibition stands for the drop in the measured response relative to a control, in per cent.
